Data taken from patent US10011631B2, “Stapled helical peptides and methods of synthesis” (The University of Hong Kong, priority 2015, dated 2018).

Target: MAGUK GK domain
Test: ITC binding to the MAGUK GK domain
Conditions: from ITC studies

binding affinity with the GK domain: no binding affinity
Substance: Ala-Arg-Arg-S5-Glu-Tyr-Leu-S5-Ala-Ile-Gln [compound 1]
